Experimental data taken from US12447156B2, “Treating progressive familial intrahepatic cholestasis (PFIC) with IBAT inhibitors” (ALBIREO AB, priority 2020, dated 2025).

How the values were obtained:
Format in all cases: in vivo, human
[1] = tested on: patients with PFIC; assay: PEDFIC 2 open-label phase 3 extension trial, interim analysis: efficacy; conditions: for mean change from baseline in sBAs through PEDFIC 2 week 12: odevixibat naive at PEDFIC 2 baseline
Method: After treatment in the first trial (Example 1), patients were eligible to enroll in a second trial, a 72-week open-label extension trial. In this ongoing 72-week open-label extension trial, PFIC patients were treated with odevixibat 120 μg/kg/day. The 69 patients (PFIC1 (26%), PFIC2 (65%) or PFIC3 (7%)) treated with 120 μg/kg/day for up to 48 weeks experienced a durable effect on serum bile acids reduction and improvement in growth velocity based on review of z scores for height, weight and BMI, and improvement in ALT, AST and total bilirubin. The effects were maintained for patients treated for 18 months or longer. The example details the interim analysis through 24 weeks of treatment.
Study Design • This phase 3 study included a screening period (for newly enrolled patients [i.e., cohort 2] only) and a 72-week treatment period (FIG. 9) in which all patients received oral, once-daily odevixibat 120 μg/kg. • Patients returned to the clinic 4 and 12 weeks after the first dose of odevixibat and then approximately every 10 to 12 weeks thereafter. • Following the 72-week treatment period, patients either enrolled in an optional extension for continued treatment or returned for a follow-up visit 4 weeks after ending study drug. Outcomes, Assessments, and Statistical Analysis • The primary efficacy outcomes were to assess the effects of odevixibat on sBAs and pruritus, including mean changes and proportion of patients meeting response criteria. • sBA responders were defined as patients who achieved a normalization of sBAs or reduction of ≥70%. • Pruritus responders were defined as patients who achieved a ≥1-point drop on the pruritus assessment. • Secondary outcomes included characterizing the long-term safety and tolerability of odevixibat, as well as the effects of odevixibat on growth, biliary diversion and/or liver transplantation, and markers of cholestasis and liver disease. • For the P1O and PIP groups, there were 2 baselines (PEDFIC 1 baseline and PEDFIC 2 baseline); for those in cohort 2, baseline refers to the value prior to initiation of odevixibat in PEDFIC 2. • This interim analysis focuses on data collected after 24 weeks of treatment in PEDFIC 2. • T tests were used to calculate P values for primary outcomes in the P1O group only; other outcomes were summarized descriptively.

[2] = tested on: patients with PFIC with prior PEBD surgery; assay: PEDFIC 1/2 post hoc subgroup: patients with prior partial external biliary diversion (PEBD)
Method: (§1) One surgical treatment option for patients with PFIC is partial external biliary diversion (PEBD), which can be used to reduce bile acid levels in patients with medically refractory pruritus. However, PEBD is not successful in all patients. […] This post hoc subgroup analysis evaluated the safety and efficacy of odevixibat in patients enrolled in the PEDFIC studies who had PEBD surgery prior to study entry.
(§2) In the double-blind PEDFIC 1 study, children with PFIC1 or PFIC2 were randomized to placebo or 40 or 120 μg/kg/day odevixibat for 24 weeks. In PEDFIC 2, an ongoing, open-label extension study, patients from PEDFIC 1 or newly enrolled patients with any PFIC subtype receive odevixibat 120 μg/kg/day. In both PEDFIC 1 and PEDFIC 2, eligible patients had elevated sBAs and significant pruritus at screening. Changes over time in sBA levels and observer-reported pruritus (range: 0-4; higher scores indicate worse symptoms), sleep parameters, and quality of life (QoL; assessed with the Pediatric Quality of Life Inventory [PedsQL]) were evaluated in the subgroup of patients from PEDFIC 1 and/or PEDFIC 2 with a medical history of PEBD surgery performed prior to study enrollment.

[3] = tested on: patients with PFIC with prior PEBD surgery; assay: as above; parameters: key: Y: sBAs ≤70 μmol/L or reduced ≥70% at last assessment; N, no
Method: as §1, §2

[4] = Cohort 2, through week 24 of PEDFIC 2, n 4
[5] = P1O, through week 24 of PEDFIC 2, n 21
[6] = P1P, through week 24 of PEDFIC 2, n 9
[7] = Patient 1 (prior PEBD, PFIC2; PEDFIC 1 placebo, PEDFIC 2 120 μg/kg/d; 42 weeks exposure)
[8] = Patient 2 (prior PEBD, PFIC1; PEDFIC 1 placebo, PEDFIC 2 120 μg/kg/d; 35 weeks exposure)
[9] = Patient 3 (prior PEBD, PFIC1; PEDFIC 1 40 μg/kg/d, PEDFIC 2 120 μg/kg/d; 44 weeks exposure)
[10] = Patient 4 (prior PEBD, PFIC1; PEDFIC 1 40 μg/kg/d, PEDFIC 2 120 μg/kg/d; 55 weeks exposure)
[11] = Patient 5 (prior PEBD, PFIC2; 120 μg/kg/d in PEDFIC 1 and 2; 53 weeks exposure)
[12] = Patient 6 (prior PEBD, PFIC2; 120 μg/kg/d in PEDFIC 1 and 2; 44 weeks exposure)
[13] = Patient 7 (prior PEBD, PFIC2; 120 μg/kg/d in PEDFIC 1 and 2; 54 weeks exposure, discontinued)
[14] = Patient 8 (prior PEBD, PFIC1; 120 μg/kg/d in PEDFIC 1 and 2; 47 weeks exposure)
[15] = Patient 9 (prior PEBD, PFIC1; PEDFIC 2 only, 120 μg/kg/d; 25 weeks exposure)
[16] = of 10 patients with prior PEBD surgery

## CCCCC1(CCCC)CN(c2ccccc2)c2cc(SC)c(OCC(=O)N[C@@H](C(=O)N[C@@H](CC)C(=O)O)c3ccc(O)cc3)cc2S(=O)(=O)N1 [Odevixibat, 1,1-dioxo-3,3-dibutyl-5-phenyl-7-methylthio-8-(N-{(R)-α-[N-((S)-1-carboxypropyl)carbamoyl]-4-hydroxybenzyl}carbamoylmethoxy)-2,3,4,5-tetrahydro-1,2,5-benzothiadiazepine]
[1]; Cohort 2, through week 24 of PEDFIC 2, n 2
  PELD/MELD, Mean Change From Baseline (SE): 1.7 (5.8)
[1]; [4]
  APRI, Mean Change From Baseline (SE): 0.1 (0.2)
  Serum ALT, Mean Change From Baseline (SE): −9.8 (31.1) U/L
  Serum AST, Mean Change From Baseline (SE): −7.8 (16.2) U/L
  Total bilirubin, Mean Change From Baseline (SE): −0.2 (0.5) mg/dL
[1]; P1O group, ~48 weeks cumulative odevixibat exposure, PEDFIC 1 baseline 251.8
  mean sBAs at PEDFIC 2 week 24: 85.1 µmol/L
[1]; P1O group, PEDFIC 1 baseline 3.0
  mean monthly pruritus score at PEDFIC 2 week 24: 1.4
[1]; P1O group, PEDFIC 1 baseline −1.6
  mean height Z score at week 24 of PEDFIC 2: −0.5
[1]; P1O group, baseline −0.9
  mean weight Z score after 48 weeks: 0.2
[1]; P1O, through week 24 of PEDFIC 2, n 17
  PELD/MELD, Mean Change From Baseline (SE): −0.2 (0.3)
[1]; P1O, through week 24 of PEDFIC 2, n 18
  APRI, Mean Change From Baseline (SE): −0.0 (0.1)
[1]; P1O, through week 24 of PEDFIC 2, n 20
  Serum AST, Mean Change From Baseline (SE): −14.6 (10.0) U/L
[1]; [5]
  Serum ALT, Mean Change From Baseline (SE): −26.9 (22.6) U/L
  Total bilirubin, Mean Change From Baseline (SE): −0.2 (0.1) mg/dL
[1]; P1P group (placebo in PEDFIC 1), 120 μg/kg/day, PEDFIC 2 baseline 270.8
  mean sBAs over the course of PEDFIC 2: 155.6 µmol/L
[1]; [6]
  APRI, Mean Change From Baseline (SE): 0.1 (0.1)
  PELD/MELD, Mean Change From Baseline (SE): −1.4 (1.2)
  Serum ALT, Mean Change From Baseline (SE): 16.3 (20.7) U/L
  Serum AST, Mean Change From Baseline (SE): −1.7 (5.6) U/L
  Total bilirubin, Mean Change From Baseline (SE): −1.6 (1.3) mg/dL
[1]; PEDFIC 1 baseline through week 24 of PEDFIC 2, 2 patients
  patients who underwent surgical biliary diversion or had a liver transplant: 3%
[1]; cohort 2 (newly enrolled), 120 μg/kg/day
  change in mean sBAs from baseline to week 12 of PEDFIC 2: -73.1 µmol/L
[1]; cohort 2 (newly enrolled), 120 μg/kg/day, baseline 221.5
  mean sBAs at week 12 of PEDFIC 2: 157.0 µmol/L
[1]; PFIC1, n=5
  mean change from baseline in sBAs through PEDFIC 2 week 12: −31.7
[1]; PFIC2, n=17
  mean change from baseline in sBAs through PEDFIC 2 week 12: −120.8
[1]; PFIC3, n=3
  mean change from baseline in sBAs through PEDFIC 2 week 12: −107.5
[1]; patients treated for 48 weeks
  average sBAs relative to published threshold for PFIC2 disease modification: fell below the published threshold for PFIC2 disease modification
[2]; [7]
  Pruritus Responder?: N (N, no)
[2]; Patient 1 (prior PEBD, PFIC2; PEDFIC 1 placebo, PEDFIC 2 120 μg/kg/d; 42 weeks exposure), baseline 1.9
  Change From Baseline in Pruritus Score: 0.1
[2]; Patient 1 (prior PEBD, PFIC2; PEDFIC 1 placebo, PEDFIC 2 120 μg/kg/d; 42 weeks exposure), baseline 172
  Change From Baseline in sBAs: -18 µmol/L
[2]; [8]
  Pruritus Responder?: N (N, no)
[2]; Patient 2 (prior PEBD, PFIC1; PEDFIC 1 placebo, PEDFIC 2 120 μg/kg/d; 35 weeks exposure), baseline 3.8
  Change From Baseline in Pruritus Score: −0.9
[2]; Patient 2 (prior PEBD, PFIC1; PEDFIC 1 placebo, PEDFIC 2 120 μg/kg/d; 35 weeks exposure), baseline 225
  Change From Baseline in sBAs: -69.5 µmol/L
[2]; [9]
  Pruritus Responder?: Y (≥1-point drop in pruritus score at last assessment)
[2]; Patient 3 (prior PEBD, PFIC1; PEDFIC 1 40 μg/kg/d, PEDFIC 2 120 μg/kg/d; 44 weeks exposure), baseline 3.0
  Change From Baseline in Pruritus Score: −2.1
[2]; Patient 3 (prior PEBD, PFIC1; PEDFIC 1 40 μg/kg/d, PEDFIC 2 120 μg/kg/d; 44 weeks exposure), baseline 193
  Change From Baseline in sBAs: 197 µmol/L
[2]; [10]
  Pruritus Responder?: Y (≥1-point drop in pruritus score at last assessment)
[2]; Patient 4 (prior PEBD, PFIC1; PEDFIC 1 40 μg/kg/d, PEDFIC 2 120 μg/kg/d; 55 weeks exposure), baseline 3.0
  Change From Baseline in Pruritus Score: −1.5
[2]; Patient 4 (prior PEBD, PFIC1; PEDFIC 1 40 μg/kg/d, PEDFIC 2 120 μg/kg/d; 55 weeks exposure), baseline 163
  Change From Baseline in sBAs: -53.5 µmol/L
[2]; [11]
  Pruritus Responder?: N (N, no)
[2]; Patient 5 (prior PEBD, PFIC2; 120 μg/kg/d in PEDFIC 1 and 2; 53 weeks exposure), baseline 2.8
  Change From Baseline in Pruritus Score: 0.3
[2]; Patient 5 (prior PEBD, PFIC2; 120 μg/kg/d in PEDFIC 1 and 2; 53 weeks exposure), baseline 156.5
  Change From Baseline in sBAs: -11.5 µmol/L
[2]; [12]
  Pruritus Responder?: N (N, no)
[2]; Patient 6 (prior PEBD, PFIC2; 120 μg/kg/d in PEDFIC 1 and 2; 44 weeks exposure), baseline 3.0
  Change From Baseline in Pruritus Score: 0.0
[2]; Patient 6 (prior PEBD, PFIC2; 120 μg/kg/d in PEDFIC 1 and 2; 44 weeks exposure), baseline 237
  Change From Baseline in sBAs: 103 µmol/L
[2]; [13]
  Pruritus Responder?: N (N, no)
[2]; Patient 7 (prior PEBD, PFIC2; 120 μg/kg/d in PEDFIC 1 and 2; 54 weeks exposure, discontinued), baseline 2.9
  Change From Baseline in Pruritus Score: −0.3
[2]; Patient 7 (prior PEBD, PFIC2; 120 μg/kg/d in PEDFIC 1 and 2; 54 weeks exposure, discontinued), baseline 208
  Change From Baseline in sBAs: 178 µmol/L
[2]; [14]
  Pruritus Responder?: Y (≥1-point drop in pruritus score at last assessment)
[2]; Patient 8 (prior PEBD, PFIC1; 120 μg/kg/d in PEDFIC 1 and 2; 47 weeks exposure), baseline 2.0
  Change From Baseline in Pruritus Score: −2.1
[2]; Patient 8 (prior PEBD, PFIC1; 120 μg/kg/d in PEDFIC 1 and 2; 47 weeks exposure), baseline 188.5
  Change From Baseline in sBAs: 61.5 µmol/L
[2]; [15]
  Pruritus Responder?: N (N, no)
[2]; Patient 9 (prior PEBD, PFIC1; PEDFIC 2 only, 120 μg/kg/d; 25 weeks exposure), baseline 2.0
  Change From Baseline in Pruritus Score: −0.5
[2]; Patient 9 (prior PEBD, PFIC1; PEDFIC 2 only, 120 μg/kg/d; 25 weeks exposure), baseline 139.5
  Change From Baseline in sBAs: 8.5 µmol/L
[2]; Patient 10 (prior PEBD, PFIC2; PEDFIC 2 only, 120 μg/kg/d; 35 weeks exposure)
  Pruritus Responder?: Y (≥1-point drop in pruritus score at last assessment)
[2]; Patient 10 (prior PEBD, PFIC2; PEDFIC 2 only, 120 μg/kg/d; 35 weeks exposure), baseline 2.5
  Change From Baseline in Pruritus Score: −1.5
[2]; Patient 10 (prior PEBD, PFIC2; PEDFIC 2 only, 120 μg/kg/d; 35 weeks exposure), baseline 79.5
  Change From Baseline in sBAs: -70.5 µmol/L
[2]; [16]
  patients who met criteria for pruritus response (≥1-point drop): 4 patients
  patients with reductions in pruritus score: 7 patients
  patients with reductions in sBA levels: 5 patients
[2]; of 10 patients with prior PEBD surgery, last assessment
  patients who met criteria for sBA response (reduced by ≥70% or ≤70 μmol/L): 1 patient
[2]; of the 9 prior-PEBD patients with post-baseline QoL assessments
  patients with improved observer-reported PedsQL total scores: 6 patients
[2]; patients with prior PEBD surgery
  tolerability: generally well tolerated
[2]; prior PEBD subgroup, 9 of 10 patients, all mild to moderate
  patients with TEAEs: 90%
[3]; [7]
  sBA Responder?: N
[3]; [8]
  sBA Responder?: N
[3]; [9]
  sBA Responder?: N
[3]; [10]
  sBA Responder?: N
[3]; [11]
  sBA Responder?: N
[3]; [12]
  sBA Responder?: N
[3]; [13]
  sBA Responder?: N
[3]; [14]
  sBA Responder?: N
[3]; [15]
  sBA Responder?: N
